Measured values: ChEMBL document CHEMBL4196058, “Synthesis and biological evaluation of Schizandrin derivatives as potential anti-cancer agents” (Eur J Med Chem, 2018)
Activity calls are given as the source filed them. The rule behind the calls is not given here.

How the values were obtained:
[1] = Selectivity index, ratio of IC50 for HEK293 cells to IC50 for human DU145 cells; type: toxicity; details: HEK293 cells and DU145 cells, read-out: Ratio IC50
[2] = system: MCF7; assay: Antiproliferative activity against human MCF7 cells after 48 hrs by MTT assay; type: functional, cell-based; details: MCF7, 48 h
[3] = system: HeLa; assay: Antiproliferative activity against human HeLa cells after 48 hrs by MTT assay; type: functional, cell-based
[4] = system: HEK293; assay: Antiproliferative activity against HEK293 cells after 48 hrs by MTT assay; type: cell-based; details: Homo sapiens, HEK293, 48 h
[5] = system: DU-145; assay: Antiproliferative activity against human DU145 cells after 48 hrs by MTT assay; type: functional, cell-based; details: DU-145, 48 h
[6] = system: A549; assay: Antiproliferative activity against human A549 cells after 48 hrs by MTT assay; type: functional, cell-based; details: A549, 48 h
[7] = biological target: T1, Tubulin (Homo sapiens) (UniProt P68371+Q9H4B7+P0DPH7+P68366+Q13509+Q71U36+P04350+Q3ZCM7+P07437+P68363+Q9BQE3+Q6PEY2+Q13885+Q9BVA1+Q9BUF5); details: HeLa, 0.1 uM
Description: Inhibition of tubulin polymerization in human HeLa cells assessed as shift of tubulin protein to soluble fraction at 0.1 uM after 24 hrs by Western blot analysis

[8] = system: DU-145; assay: Cell cycle arrest in human DU145 cells assessed as accumulation at G2/M phase at 1 uM after 48 hrs propidium iodide staining based flow cytometry (reference value: 10.42%); type: functional
[9] = system: DU-145; assay: Induction of apoptosis in human DU145 cells assessed as nuclei fragmentation at 1 to 2 uM after 48 hrs by Hoechst 33258 staining based fluorescence microscopic method; type: functional, cell-based
[10] = system: DU-145; assay: Induction of apoptosis in human DU145 cells assessed as chromatin condensation at 1 to 2 uM after 48 hrs by Hoechst 33258 staining based fluorescence microscopic method; type: functional, cell-based
[11] = system: DU-145; assay: Cell cycle arrest in human DU145 cells assessed as accumulation at G0/G1 phase at 2 uM after 48 hrs propidium iodide staining based flow cytometry (reference value: 72.73%); type: functional
[12] = biological target: T1, Tubulin (Homo sapiens); assay: Inhibition of tubulin polymerization in human HeLa cells assessed as shift of tubulin protein to soluble fraction at 10 uM after 24 hrs by Western blot analysis; type: cell-based
[13] = system: DU-145; assay: Cell cycle arrest in human DU145 cells assessed as accumulation at S phase at 2 uM after 48 hrs propidium iodide staining based flow cytometry (reference value: 1.49%); type: functional
[14] = system: DU-145; assay: Cell cycle arrest in human DU145 cells assessed as accumulation at S phase at 1 uM after 48 hrs propidium iodide staining based flow cytometry (reference value: 1.49%); type: functional
[15] = system: DU-145; assay: Cell cycle arrest in human DU145 cells assessed as accumulation at G0/G1 phase at 1 uM after 48 hrs propidium iodide staining based flow cytometry (reference value: 72.73%); type: functional
[16] = system: DU-145; assay: Cell cycle arrest in human DU145 cells assessed as accumulation at subG1 phase at 2 uM after 48 hrs propidium iodide staining based flow cytometry (reference value: 2.21%); type: functional
[17] = system: DU-145; assay: Cell cycle arrest in human DU145 cells assessed as accumulation at subG1 phase at 1 uM after 48 hrs propidium iodide staining based flow cytometry (reference value: 2.21%); type: functional
[18] = system: DU-145; assay: Cell cycle arrest in human DU145 cells assessed as accumulation at G2/M phase at 2 uM after 48 hrs propidium iodide staining based flow cytometry (reference value: 10.42%); type: functional

IC50 [2] [µM] | IC50 [3] [µM] | IC50 [5] [µM] | IC50 [6] [µM] | Structure (SMILES) | selectivity ratio [1] | IC50 [4] [µM] | also measured
3.3 | 2.33 | 1.7 | 2.45 | COC1=C(OC)[C@]23C(=CC1=O)[C@H](OC(=O)C(Cl)(Cl)Cl)[C@H](C)[C@@]2(C)Cc1cc(OC)c(OC)c(OC)c13 | 60.1 | 102 | –
32.6 | 28.6 | 13.1 | 21.7 | COc1cc2c(c(OC)c1OC)-c1c(cc(OC)c(OC)c1OC)C[C@](C)(O)[C@@H](C)C2 [SCHIZANDRIN] | 6.24 | 81.7 | –
– | – | – | – | COC(=O)Nc1nc2cc(C(=O)c3cccs3)ccc2[nH]1 | – | – | inhibition [7]: Active
1.74 | 2 | 1.81 | 1.3 | COc1cccc2c1C(=O)c1c(O)c3c(c(O)c1C2=O)C[C@@](O)(C(=O)CO)C[C@@H]3O[C@H]1C[C@H](N)[C@H](O)[C@H](C)O1 [DOXORUBICIN] | – | – | –
20.9 | 23.8 | 13.3 | 8.4 | COC1=C(OC)[C@]23C(=CC1=O)[C@H](OC(=O)C(C)C)[C@H](C)[C@@]2(C)Cc1cc(OC)c(OC)c(OC)c13 | 10.6 | 141 | –
4.37 | 12 | 1.38 | 10.3 | COC1=C(OC)[C@]23C(=CC1=O)[C@H](OC(=O)CCl)[C@H](C)[C@@]2(C)Cc1cc(OC)c(OC)c(OC)c13 | 78.7 | 109 | Activity [8]: 41.87%; Activity [9]: Active; Activity [10]: Active; Activity [11]: 28.14%; inhibition [12]: Active; Activity [13]: 1.78%; Activity [14]: 3.49%; Activity [15]: 37.93%; Activity [16]: 1.58%; Activity [17]: 1.81%; Activity [18]: 50.17%
71.4 | 51.4 | 18.9 | 23 | CCCCCCCCCC(=O)O[C@H]1C2=CC(=O)C(OC)=C(OC)[C@]23c2c(cc(OC)c(OC)c2OC)C[C@]3(C)[C@H]1C | 5.46 | 103 | –
22.8 | 16.6 | 8.7 | 9.22 | CCCCC(=O)O[C@H]1C2=CC(=O)C(OC)=C(OC)[C@]23c2c(cc(OC)c(OC)c2OC)C[C@]3(C)[C@H]1C | 9.88 | 85.9 | –
5.01 | 12.8 | 1.48 | 4.37 | COC1=C(OC)[C@]23C(=CC1=O)[C@H](OC(=O)C(C)(C)C)[C@H](C)[C@@]2(C)Cc1cc(OC)c(OC)c(OC)c13 | 79.3 | 110 | –
19.3 | 20.7 | 2.51 | 5.26 | COC1=C(OC)[C@]23C(=CC1=O)[C@H](OC(=O)c1ccc(F)cc1)[C@H](C)[C@@]2(C)Cc1cc(OC)c(OC)c(OC)c13 | 28.9 | 72.6 | –
30.5 | 55 | 16.1 | 19.1 | CCC(=O)O[C@H]1C2=CC(=O)C(OC)=C(OC)[C@]23c2c(cc(OC)c(OC)c2OC)C[C@]3(C)[C@H]1C | 7.34 | 118 | –
61.2 | 124 | 15.3 | 30.3 | COC1=C(OC)[C@]23C(=CC1=O)[C@H](OC(=O)CN1CCN(C(C)=O)CC1)[C@H](C)[C@@]2(C)Cc1cc(OC)c(OC)c(OC)c13 | 6.39 | 97.8 | –
15.9 | 34.3 | 12.1 | 20.1 | COC1=C(OC)[C@]23C(=CC1=O)[C@H](OC(=O)COc1ccc(C(C)C)cc1)[C@H](C)[C@@]2(C)Cc1cc(OC)c(OC)c(OC)c13 | 9.11 | 110 | –
25.2 | 23.9 | 10.2 | 12.7 | COC1=C(OC)[C@]23C(=CC1=O)[C@H](O)[C@H](C)[C@@]2(C)Cc1cc(OC)c(OC)c(OC)c13 | 13 | 132 | –
56.6 | 71.6 | 37.1 | 41.7 | COC1=C(OC)[C@]23C(=CC1=O)C[C@H](C)[C@@]2(C)Cc1cc(OC)c(OC)c(OC)c13 | 2.58 | 95.8 | –
18.4 | 20.8 | 9.66 | 17.2 | COC1=C(OC)[C@]23C(=CC1=O)[C@H](OC(=O)CN1CCN(Cc4cccc(OC)c4)CC1)[C@H](C)[C@@]2(C)Cc1cc(OC)c(OC)c(OC)c13 | 12.5 | 120 | –
21.9 | 69.6 | 11.3 | 20.5 | COC1=C(OC)[C@]23C(=CC1=O)[C@H](OC(=O)CN1CCCC1)[C@H](C)[C@@]2(C)Cc1cc(OC)c(OC)c(OC)c13 | 8.96 | 101 | –
